Experiments:
Format in all cases: cell-based
[1] = test system: Keratinocytes; experiment: IC50 on non-cancerous cell cultures; conditions: normal primary short-term cell culture
[2] = test system: Fibroblasts; experiment: IC50 on non-cancerous cell cultures; conditions: normal primary short-term cell culture
[3] = test system: A2780 and SKOV3 cells and the resistant subcultures; experiment: Cell cycle distribution, PI staining and FACS; conditions: 48 h treatment, 24 h recovery
Procedure: The reduced viability under treatment, as measured by the MTT assay, can be a result of cell cycle arrest and/or increased cell death. To further evaluate the anticancer properties of the ruthenium(II) complexes we measured cell cycle distribution and cell death rates after treatment with Ru3 or Ru14. After seeding and attaching, the cells were treated for 48 h with different concentrations of substances. For cell cycle distribution measurements, a recovery phase of 24 h was added after treatment, and cells were fixed and stained with PI for the DNA content. Arresting of cells in specific cell cycle phases gives them time to resolve the DNA damage (G1 arrest) or is an initial step to apoptosis if DNA damage is too severe (G2/M arrest).
To examine cell cycle distribution and cell death rates, 30,000 cells were seeded in 12 well plates. After attaching for 24 h cells were treated with Cisplatin, Ru3 and Ru14 for 48 h at various concentrations for cell cycle and cell death analyses. For cell death analysis, immediately after treatment cells were stained with Propidium Iodid (PI) (1 µg/mL) on ice and the number of dead cells was measured using BD Canto II. For cell cycle distribution, cells recovered for 24 h after treatment. Afterwards, cells were fixed in ice-cold, 50% EtOH for 24 h at −20 °C. For DNA staining, fixed cells were incubated in PBS with 0.05% Triton-X, 0.1 µg/mL RNaseA and 50 µg/mL PI for 1 h at 4 °C in dark. DNA content was measured using BD Canto II.

[4] = test system: Cisplatin resistant cell lines; experiment: Mean IC50 (MTT assay) on Cisplatin resistant cell lines
Procedure: (§1) Thus, it can be concluded that the biological activity is mediated by a longer chain (butoxy) at the meta-position, whereas the ortho- and para-positions are more suitable with a shorter chain (ethoxy). To have a further look at the influence of the different ligand systems and substitution patterns, all β-Hydroxydithiocinnamic acid alkyl esters were tested under same conditions as their derived ruthenium(II) complexes (Figure 5B, Supplementary Table S3). […] All ligands are less cytotoxic than Cisplatin itself and therefore the metal(II) center is necessary for the high cytotoxic activity, what is in clear contrast to the literature for O,S-chelating ruthenium(II) or osmium(II) compounds with thiomaltol ligand [48, 71] but confirmed for Ru(II)/Os(II) compounds with N,N-bidentate glycosyl heterocyclic ligands. This is exemplarily shown by the comparison of mean IC50 values for Cisplatin, L14, and Ru14 (Supplementary Figure S8).
Ovarian cancer cell lines were cultured under standard conditions (5% CO2, 37 °C, 90% humidity) in RPMI medium supplemented with 10% FCS, 100 U/mL penicillin and 100 µg/mL streptomycin (Life Technologies, Dreieich, Germany). Cisplatin (Sigma, Taufkirchen, Germany) was freshly dissolved at 1 mg/mL in 0.9% NaCl solution and diluted appropriately. New ruthenium(II) complexes and ligands were dissolved in dmso. Platinum-resistant A2780 and SKOV3 cells were established by repeated rounds of 3-day incubations with increasing amounts of Cisplatin starting with 0.1 µM. The concentration was doubled after 3 incubations, interrupted by recovery phases with normal medium. […] Determinations of IC50 values were carried out using the CellTiter96 non-radioactive proliferation assay (MTT assay, Promega, Mannheim, Germany). After seeding 5000 cells per well in a 96-well plate, cells were allowed to attach for 24 h and were incubated for 48 h with different concentrations of the substances ranging from 0 to 500 µM for Ruthenium and 0 to 1000 µM for ligand tests (0, 1, 10, 50, 100, 500, 1000 µm), for Cisplatin from 0 to 100 µM (0.1, 1, 5, 10, 50, 100 µM). Each measurement was done in triplicate and repeated 3 times. The proportion of viable cells was quantified by the MTT assay and after background subtraction relative values compared to the mean of medium controls were calculated. Non-linear regression analyses applying the Hill slope were run in GraphPad 5.0 software.

[5] = test system: all cancer cell lines; experiment: Mean IC50 (MTT assay) for all cancer cell lines
Procedure: as §1
Ovarian cancer cell lines were cultured under standard conditions (5% CO2, 37 °C, 90% humidity) in RPMI medium supplemented with 10% FCS, 100 U/mL penicillin and 100 µg/mL streptomycin (Life Technologies, Dreieich, Germany). […] The proportion of viable cells was quantified by the MTT assay and after background subtraction relative values compared to the mean of medium controls were calculated. […]

[(η^6-p-cymene)Ru(1-(3-ethoxyphenyl)-3-(methylthio)-3-thioxo-prop-1-en-1-olate-O,S)] [Ru14]
IC50 [1]: > 100 µM
IC50 [2]: > 100 µM
effect on cell cycle distribution [3]: no or only a minor effect on cell cycle distribution
mean IC50 value on Cisplatin resistant cell lines compared with Cisplatin [4]: lower
mean IC50 value / cytotoxicity for all cancer cell lines compared with Cisplatin [5]: lower

Source: PMC9102668, “Highly Cytotoxic Osmium(II) Compounds and Their Ruthenium(II) Analogues Targeting Ovarian Carcinoma Cell Lines and Evading Cisplatin Resistance Mechanisms” (International Journal of Molecular Sciences, 2022)
